# Data: US10172857B2, “Boosting the effect of methotrexate through the combined use with lipophilic statins” (Dalana3, S.L., priority 2013, dated 2019)
# Experiments:
# Assay type in all cases: cell-based, human
# HOS cells [1] = assay: Apoptosis testing by flow cytometry (SubG0 peak); conditions: 48 hours
# HOS cells [2] = assay: Analysis of the cell cycle by flow cytometry (PI); conditions: for changes in the distribution of the cell cycle (summary): FIGS. 11-15; for changes in the cell cycle with increasing doses: MTX 10-200 nM or SV 0.2-10 μM
# Protocol: In order to analyse the changes in the distribution of the cell cycle the cells are seeded and treated under the same conditions employed with the Annexin V dye. The treated and untreated cells are resuspended in NP-40 at 1% dissolved in PBS additionally containing 50 μg/mL PI at a density of 3×10^5 cells/sample. The analysis and quantification of each of the experimental conditions is then carried out after 15 minutes incubation in the dark and at ambient temperature, following the same methodology as employed in the apoptosis experiments with Annexin-V staining (FACSCalibur flow cytometry and Cell Quest software).
# osteosarcoma cells (HOS) = assay: Cell viability test, trypan blue staining and counting in Neubauer chamber; conditions: for morphological changes: 0.5 μM simvastatin, 50 nM methotrexate or both, 48 and 72 hours; for effect on cell proliferation and cell death (trypan blue counts): FIGS. 6-10
# Protocol: The HOS cells are cultivated in a culture medium supplemented with 5-10% heat-inactivated foetal bovine serum and 2 mM of L-glutamine, at 37° C., 95% humidity and 5% atmospheric CO2. The cells are treated with 0.5 μM of simvastatin and with 50 nM of MTX for 24, 48 and 72 hours. The cells are collected by trypsinization. This involves first aspirating the cultivation medium; the cells are then washed with 2-3 mL of PBS (sterile); add 0.5-1 mL of trypsin-EDTA solution (sterile); incubated at 37° for 5 minutes; the cells are collected with 5 mL of fresh culture medium; and the suspension is placed in a sterile 15 mL tube. The trypan blue dye is used in order to determine cell viability. Trypan blue is a colloid that enters the cells through breaks in the cell membrane. Therefore, the cells that appear in the image, clearly stained blue, are considered to be non-viable. For the measurement, mix 50 μL of the trypan blue solution and 50 μL of cell suspension are placed in a 1.5 mL tube. The mixture is homogenised and 10 μL placed in a Neubauer chamber. The total cells and the non-viable cells (completely stained blue) are counted.
# [3] = HOS cells, SV 1 μM alone, 24 hours
Structure (SMILES),MTX concentration at incipient appearance of the SubG0 peak (cell death by apoptosis) (HOS cells [1]; MTX 10-200 nM tested) [NM],number of cells quantified in the SubG0 phase (HOS cells [1]; doses above 50 nM of MTX),changes in the distribution of the cell cycle (summary) (HOS cells [2]),"changes in the cell cycle with increasing doses (HOS cells [2]; HOS cells, 24 hours)",morphological changes (osteosarcoma cells (HOS)),effect on cell proliferation and cell death (trypan blue counts) (osteosarcoma cells (HOS)),SV concentration at appearance of the SubG0 peak (cell death by apoptosis) (HOS cells [1]; SV 0.2-10 μM tested) [µM],SV concentration at maximum of the SubG0 peak (HOS cells [1]; SV 0.2-10 μM tested) [µM],number of cells quantified in the SubG0 phase (HOS cells [1]; doses above 0.2 μM SV),decrease of the G1 phase compared to the control (HOS cells [2]; [3]) [%],increase of cells in the G2/M phase compared to the control (HOS cells [2]; [3]) [%]
"CN(Cc1cnc2nc(N)nc(N)c2n1)c1ccc(C(=O)N[C@@H](CCC(=O)O)C(=O)O)cc1 [MTX, (2S)-2-[(4-{[(2,4-diaminopteridin-6-yl)methyl](methyl)amino}benzoyl)amino]pentanedioic acid]",20,significant increase,halt in the cycle in phase G1,"decrease in the S phase and in the number of cells in phase G2/M, with subsequent accumulation in the phase G1",enlarged cells and even those with two nuclei,preferentially acts to slow cell proliferation,,,,,
"CCC(C)(C)C(=O)O[C@H]1C[C@@H](C)C=C2C=C[C@H](C)[C@H](CC[C@@H]3C[C@@H](O)CC(=O)O3)[C@H]21 [SV, simvastatin]",,,halts the cycle in phase G2/M,"decrease in the S phase and in the number of cells in phase G1 is notable, with subsequent accumulation in the phase G2/M",rounded cells,predominant effect on the induction of cell death,< 0.2,10,notable increase,19.60,40.92
